The record followed here is patent publication US20230382949A1 (HEPTARES THERAPEUTICS LIMITED, priority 2020, published 2023).

Where two headings read alike, the source gives them in different places. Starred links: 1 amine or outer side, 2 acyl side, 3 side chain; linkers in the order of their positions; H or OH if unused. Non-standard residues stand in square brackets, D forms with d. Residues, ends and D or L forms follow the SMILES beside them. *: point of attachment. Ala(piperidin-4-yl) = O=C([C@H](CC1CCN([*:3])CC1)N[*:1])[*:2]; Malonyl(2,2-Me2,histaminyl) = CC(C)(C(=O)NCCc1cnc[nH]1)C(=O)*; dBip = N[C@H](Cc1ccc(-c2ccccc2)cc1)C(=O)O; Oic = O=C(O)[C@@H]1C[C@@H]2CCCC[C@@H]2N1; Phe(4-Br) = N[C@@H](Cc1ccc(Br)cc1)C(=O)O; X4 = CC(C)(C(=O)NCCCc1cnc[nH]1)C(=O)*; d2Nal = N[C@H](Cc1ccc2ccccc2c1)C(=O)O; NMeH = CN[C@@H](Cc1c[nH]cn1)C(=O)O; hArg = N=C(N)NCCCC[C@H](N)C(=O)O; 3Pal = N[C@@H](Cc1cccnc1)C(=O)O; NMeL = CN[C@@H](CC(C)C)C(=O)O; Pip = O=C(O)[C@@H]1CCCCN1; Nle = CCCC[C@H](N)C(=O)O; Aib = CC(C)(N)C(=O)O

Assay [1] has as its target T1, human Apelin receptor (Homo sapiens, UniProt P35414).
T1 sequence (P35414 1-380): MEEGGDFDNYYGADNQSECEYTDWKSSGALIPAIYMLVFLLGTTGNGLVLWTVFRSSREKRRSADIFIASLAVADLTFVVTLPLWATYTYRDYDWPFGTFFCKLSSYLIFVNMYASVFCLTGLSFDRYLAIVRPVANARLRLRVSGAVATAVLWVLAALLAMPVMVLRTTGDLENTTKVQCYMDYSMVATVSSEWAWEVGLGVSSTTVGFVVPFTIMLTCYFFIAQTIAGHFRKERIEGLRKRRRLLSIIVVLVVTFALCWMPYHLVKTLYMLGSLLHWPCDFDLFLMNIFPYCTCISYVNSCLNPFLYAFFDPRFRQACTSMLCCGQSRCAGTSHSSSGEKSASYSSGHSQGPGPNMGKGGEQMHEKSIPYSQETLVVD
Nature of the assay: cAMP accumulation assay (HTRF), functional agonism of human Apelin receptors. Format: cell-based. As to conditions: for Emax: CHO. An excerpt:
cAMP functional assay. cAMP production was quantified using the Homogeneous Time-Resolved Fluorescence (HTRF) cAMP dynamic-2 assay (Cisbio, France).

Assay [2] concerns the target T2, human Apelin receptor (Homo sapiens, UniProt P35414).
T2 construct: host or cells: CHO-K1 cells
Nature of the assay: β-arrestin accumulation assay, functional agonism of human Apelin receptors. It is filed as cell-based. How it is done:
β-arrestin assay. […] After 16 h incubation at 37° C. media was removed and cells were incubated at 37° C. for 90 min in serum free media containing increasing concentrations of test agonist. The assay reaction was stopped by adding detection reagent (DiscoveRx) and incubation for 60 min in the dark. Levels of receptor activation were then measured on a PheraStar fluorescence plate reader (BMG LabTech) and EC50 values were determined using Graphpad Prism.
T2 sequence (P32121 whole entry partner, one chain of several): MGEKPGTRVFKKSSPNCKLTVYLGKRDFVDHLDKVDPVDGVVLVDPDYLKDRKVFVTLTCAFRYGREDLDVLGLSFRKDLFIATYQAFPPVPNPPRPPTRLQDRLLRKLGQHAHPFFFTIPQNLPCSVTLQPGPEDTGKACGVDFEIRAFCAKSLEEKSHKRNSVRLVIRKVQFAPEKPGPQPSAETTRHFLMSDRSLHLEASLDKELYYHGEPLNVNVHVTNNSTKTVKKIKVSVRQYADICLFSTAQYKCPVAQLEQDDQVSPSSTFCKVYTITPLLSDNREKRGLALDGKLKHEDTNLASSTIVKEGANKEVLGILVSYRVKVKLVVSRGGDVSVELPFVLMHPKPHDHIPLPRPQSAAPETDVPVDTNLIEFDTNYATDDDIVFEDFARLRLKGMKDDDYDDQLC

Where [3] appears, read: Human Apelin agonist cAMP assay, CHO cells stably expressing the human Apelin receptor, 3 uM forskolin.
Where [4] appears, read: pEC50, Human Apelin agonist cAMP assay, CHO cells stably expressing the human Apelin receptor, 3 uM forskolin.

Regarding `CCCC[C@H](NC(=O)[C@@H]1C[C@@H]2CCCC[C@@H]2N1C(=O)[C@H](C)NC(=O)[C@H](CC1CCNCC1)NC(=O)[C@H](Cc1ccc(Br)cc1)NC(=O)C(C)(C)NC(=O)[C@H](CC(C)C)NC(=O)[C@@H](CCCNC(=N)N)NC(=O)[C@@H]1CCCCN1C(=O)[C@H](CCCCNC(=N)N)NC(=O)[C@H](CCC(N)=O)NC(=O)C(C)(C)C(=O)NCCc1cnc[nH]1)C(=O)N1CCC[C@H]1C(=O)N[C@H](Cc1ccc(-c2ccccc2)cc1)C(=O)O` [Example 62] ({Malonyl(2,2-Me2,histaminyl)}-Q[hArg][Pip][dR]L[Aib][Phe(4-Br)][Ala(piperidin-4-yl)]A[Oic][Nle]P[dBip]-OH), the Emax – broadly, the maximal effect, on the per cent scale that the assay sets – on human Apelin receptor [1] (read-out: Emax) was found to be 31.7%. Further, the EC50 was 100 nM on human Apelin receptor [1] (read-out: pEC50 (converted)) and over 10000 nM on human Apelin receptor [2].

For the compound `CC(C)C[C@H](NC(=O)[C@@H](CCCNC(=N)N)NC(=O)[C@@H]1CCCN1C(=O)[C@H](CCCCNC(=N)N)NC(=O)[C@H](CCC(N)=O)NC(=O)C(C)(C)C(=O)NCCCc1cnc[nH]1)C(=O)NC(C)(C)C(=O)N[C@@H](Cc1c[nH]cn1)C(=O)N[C@@H](CC1CCNCC1)C(=O)NCC(=O)N1[C@H](C(=O)N[C@@H](Cc2ccc(Br)cc2)C(=O)N2CCC[C@H]2C(=O)N[C@H](Cc2ccc(-c3ccccc3)cc2)C(=O)O)C[C@@H]2CCCC[C@@H]21` [Example 61] (X4-Q[hArg]P[dR]L[Aib]H[Ala(piperidin-4-yl)]G[Oic][Phe(4-Br)]P[dBip]-OH), the Emax at human Apelin receptor [1] (setting [3]) came out at 41.8%. In addition, the EC50 at human Apelin receptor [1] (setting [4]) was 10 nM; at human Apelin receptor [2], over 100000 nM.

`CC(C)C[C@H](NC(=O)[C@@H](CCCNC(=N)N)NC(=O)[C@@H]1CCCN1C(=O)[C@H](CCCCNC(=N)N)NC(=O)[C@H](CCC(N)=O)NC(=O)[C@@H](CCCNC(=N)N)NC(=O)C(C)(C)C(=O)NCCc1c[nH]cn1)C(=O)NC(C)(C)C(=O)N[C@@H](Cc1cccnc1)C(=O)N[C@@H](CC1CCNCC1)C(=O)NCC(=O)N1[C@H](C(=O)N[C@@H](Cc2ccc(Br)cc2)C(=O)N2CCC[C@H]2C(=O)N[C@H](Cc2ccc(-c3ccccc3)cc2)C(=O)O)C[C@@H]2CCCC[C@@H]21` [Example 15] ({Malonyl(2,2-Me2,histaminyl)}-[dR]Q[hArg]P[dR]L[Aib][3Pal][Ala(piperidin-4-yl)]G[Oic][Phe(4-Br)]P[dBip]-OH) displayed an Emax on human Apelin receptor [1] (setting [3]) of 86.4%. In addition, the EC50 on human Apelin receptor [1] (setting [4]) is 7.94 nM; on human Apelin receptor [2], over 10000 nM.

The compound `CC(C)C[C@H](NC(=O)[C@@H](CCCNC(=N)N)NC(=O)[C@@H]1CCCN1C(=O)[C@H](CCCCNC(=N)N)NC(=O)[C@H](CCC(N)=O)NC(=O)[C@@H](CCCNC(=N)N)NC(=O)C(C)(C)C(=O)NCCc1cnc[nH]1)C(=O)NC(C)(C)C(=O)N[C@@H](Cc1c[nH]cn1)C(=O)N[C@@H](CC1CCNCC1)C(=O)NCC(=O)N1[C@H](C(=O)N[C@@H](Cc2ccc(Br)cc2)C(=O)N2CCC[C@H]2C(=O)N[C@H](Cc2ccc(-c3ccccc3)cc2)C(=O)O)C[C@@H]2CCCC[C@@H]21` [Example 2] ({Malonyl(2,2-Me2,histaminyl)}-[dR]Q[hArg]P[dR]L[Aib]H[Ala(piperidin-4-yl)]G[Oic][Phe(4-Br)]P[dBip]-OH) gave an Emax at human Apelin receptor [1] (setting [3]) of 50.8%. Moreover, the EC50 at human Apelin receptor [1] (setting [4]) is 20 nM; at human Apelin receptor [2], over 10000 nM.

In turn, `CC(C)C[C@H](NC(=O)[C@H](CCCNC(=N)N)NC(=O)[C@@H]1CCCN1C(=O)[C@@H](CCCNC(=N)N)NC(=O)[C@H](CCC(N)=O)NC(=O)C(C)(C)C(=O)NCCc1cnc[nH]1)C(=O)NC(C)(C)C(=O)N(C)[C@@H](Cc1c[nH]cn1)C(=O)N[C@@H](CC1CCNCC1)C(=O)NCC(=O)N1[C@H](C(=O)N[C@@H](Cc2ccc(Br)cc2)C(=O)N2CCC[C@H]2C(=O)N[C@H](Cc2ccc(-c3ccccc3)cc2)C(=O)O)C[C@@H]2CCCC[C@@H]21` [Example 44] ({Malonyl(2,2-Me2,histaminyl)}-Q[dR]PRL[Aib][NMeH][Ala(piperidin-4-yl)]G[Oic][Phe(4-Br)]P[dBip]-OH) came in with an Emax on human Apelin receptor [1] (setting [3]) of 34.7%. Moreover, the EC50 is 50.1 nM at human Apelin receptor [1] (setting [4]) and over 10000 nM at human Apelin receptor [2].

For the compound `CC(C)C[C@@H](C(=O)NC(C)(C)C(=O)N[C@@H](Cc1c[nH]cn1)C(=O)N[C@@H](CC1CCNCC1)C(=O)NCC(=O)N1[C@H](C(=O)N[C@@H](Cc2ccc(Br)cc2)C(=O)N2CCC[C@H]2C(=O)N[C@H](Cc2ccc(-c3ccccc3)cc2)C(=O)O)C[C@@H]2CCCC[C@@H]21)N(C)C(=O)[C@@H](CCCNC(=N)N)NC(=O)[C@@H]1CCCN1C(=O)[C@H](CCCCNC(=N)N)NC(=O)[C@H](CCC(N)=O)NC(=O)C(C)(C)C(=O)NCCc1cnc[nH]1` [Example 51] ({Malonyl(2,2-Me2,histaminyl)}-Q[hArg]P[dR][NMeL][Aib]H[Ala(piperidin-4-yl)]G[Oic][Phe(4-Br)]P[dBip]-OH), the Emax on human Apelin receptor [1] (setting [3]) came to 27.6%. In addition, the EC50 at human Apelin receptor [1] (setting [4]) is 79.4 nM; at human Apelin receptor [2], over 10000 nM.

`CC(C)C[C@H](NC(=O)[C@@H](CCCNC(=N)N)NC(=O)[C@@H]1CCCN1C(=O)[C@H](CCCCNC(=N)N)NC(=O)[C@H](CCC(N)=O)NC(=O)C(C)(C)C(=O)NCCc1cnc[nH]1)C(=O)N[C@@H](CO)C(=O)NC(C)(C)C(=O)N[C@@H](CC1CCNCC1)C(=O)NCC(=O)N1[C@H](C(=O)N[C@@H](Cc2ccc(Br)cc2)C(=O)N2CCC[C@H]2C(=O)N[C@H](Cc2ccc(-c3ccccc3)cc2)C(=O)O)C[C@@H]2CCCC[C@@H]21` [Example 47] ({Malonyl(2,2-Me2,histaminyl)}-Q[hArg]P[dR]LS[Aib][Ala(piperidin-4-yl)]G[Oic][Phe(4-Br)]P[dBip]-OH) yielded an Emax on human Apelin receptor [1] (setting [3]) of 94.2%. For the same compound, the EC50 at human Apelin receptor [1] (setting [4]) is 12.6 nM; at human Apelin receptor [2], over 1000 nM.

`CCCC[C@H](NC(=O)[C@@H]1C[C@@H]2CCCC[C@@H]2N1C(=O)CNC(=O)[C@H](CC1CCNCC1)NC(=O)[C@H](Cc1c[nH]cn1)NC(=O)[C@@H](C)NC(=O)[C@H](CC(C)C)NC(=O)[C@H](CCCNC(=N)N)NC(=O)[C@@H]1CCCN1C(=O)[C@H](CCCNC(=N)N)NC(=O)[C@H](CCC(N)=O)NC(=O)C(C)(C)C(=O)NCCc1cnc[nH]1)C(=O)N1CCC[C@H]1C(=O)N[C@H](Cc1ccc(-c2ccccc2)cc1)C(=O)O` [Example 59] ({Malonyl(2,2-Me2,histaminyl)}-QRPRL[dA]H[Ala(piperidin-4-yl)]G[Oic][Nle]P[dBip]-OH): on human Apelin receptor [1] (setting [3]), the Emax was 48.1%. Moreover, the figures for the EC50 at human Apelin receptor [1] (setting [4]) and on human Apelin receptor [2] were 100 nM and over 10000 nM, respectively.

On to `CC(C)C[C@H](NC(=O)[C@@H](CCCNC(=N)N)NC(=O)[C@@H]1CCCN1C(=O)[C@H](CCCCNC(=N)N)NC(=O)[C@H](CCC(N)=O)NC(=O)[C@@H](CCCNC(=N)N)NC(=O)C(C)(C)C(=O)NCCc1c[nH]cn1)C(=O)NC(C)(C)C(=O)N[C@@H](Cc1c[nH]cn1)C(=O)N[C@@H](CC1CCNCC1)C(=O)N[C@@H](C)C(=O)N1[C@H](C(=O)N[C@@H](Cc2ccc(Br)cc2)C(=O)N2CCC[C@H]2C(=O)N[C@H](Cc2ccc(-c3ccccc3)cc2)C(=O)O)C[C@@H]2CCCC[C@@H]21` [Example 16] ({Malonyl(2,2-Me2,histaminyl)}-[dR]Q[hArg]P[dR]L[Aib]H[Ala(piperidin-4-yl)]A[Oic][Phe(4-Br)]P[dBip]-OH), for which the Emax at human Apelin receptor [1] (setting [3]) was 64.8%. Besides, the EC50 at human Apelin receptor [1] (setting [4]) is 5.01 nM; on human Apelin receptor [2], over 1000 nM.

Compound `CC(C)C[C@H](NC(=O)[C@H](CCCNC(=N)N)NC(=O)[C@@H]1CCCN1C(=O)[C@@H](CCCNC(=N)N)NC(=O)[C@H](CCC(N)=O)NC(=O)C(C)(C)C(=O)NCCc1cnc[nH]1)C(=O)NC(C)(C)C(=O)N[C@@H](Cc1c[nH]cn1)C(=O)N[C@@H](CC1CCNCC1)C(=O)NCC(=O)N1[C@H](C(=O)N[C@@H](Cc2ccc(Br)cc2)C(=O)N2CCC[C@H]2C(=O)N[C@H](Cc2ccc(-c3ccccc3)cc2)C(=O)O)C[C@@H]2CCCC[C@@H]21` [Example 40] ({Malonyl(2,2-Me2,histaminyl)}-Q[dR]PRL[Aib]H[Ala(piperidin-4-yl)]G[Oic][Phe(4-Br)]P[dBip]-OH) yielded an Emax at human Apelin receptor [1] (setting [3]) of 84.8%. In addition, the EC50 is 25.1 nM on human Apelin receptor [1] (setting [4]) and over 10000 nM at human Apelin receptor [2].

Consider `CC(C)C[C@H](NC(=O)[C@@H](CCCNC(=N)N)NC(=O)[C@@H]1CCCN1C(=O)[C@H](CCCCNC(=N)N)NC(=O)[C@H](CCC(N)=O)NC(=O)[C@@H](CCCNC(=N)N)NC(=O)C(C)(C)C(=O)NCCc1c[nH]cn1)C(=O)NC(C)(C)C(=O)N[C@@H](Cc1c[nH]cn1)C(=O)N[C@@H](CC1CCNCC1)C(=O)NCC(=O)N1[C@H](C(=O)N[C@@H](Cc2ccc(Br)cc2)C(=O)N2CCC[C@H]2C(=O)N[C@H](Cc2ccc3ccccc3c2)C(=O)O)C[C@@H]2CCCC[C@@H]21` [Example 23] ({Malonyl(2,2-Me2,histaminyl)}-[dR]Q[hArg]P[dR]L[Aib]H[Ala(piperidin-4-yl)]G[Oic][Phe(4-Br)]P[d2Nal]-OH), for which the Emax at human Apelin receptor [1] (read-out: Emax) came to 43.4%. Further, the EC50 at human Apelin receptor [1] (read-out: pEC50 (converted)) was 25.1 nM; on human Apelin receptor [2], over 10000 nM.

Regarding Apelin [reference compound], the “Human Apelin agonist β-arrestin assay Emax” value at human Apelin receptor [2] (CHO-K1 cells overexpressing human Apelin receptor and β-arrestin, Emax only reported for active compounds) is reported as 165.8.
